Reference: PubChem BioAssay (NCI)
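Where inhibition never reached the appropriate level, the endpoint shown equals the highest concentration tested. Otherwise, values were interpolated linearly from a five-concentration, 48-hour dose response in 96-well plates. Definition used: TGI = concentration required for complete inhibition of growth.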

Experiments:
Assay in all cases: inhibition of tumour cell growth, NCI panel, 48 h
[1] = test system: NCI-H460 lung
[2] = test system: SNB-75 CNS
[3] = test system: SW-620 colon
[4] = test system: LOX IMVI melanoma
[5] = test system: XF 498 CNS
[6] = test system: SNB-78 CNS
[7] = test system: SF-268 CNS
[8] = test system: RXF 393 renal
[9] = test system: M19-MEL melanoma
[10] = test system: SK-MEL-5 melanoma
[11] = test system: 786-0 renal
[12] = test system: DMS 114 small cell lung
[13] = test system: TK-10 renal
[14] = test system: SR leukemia
[15] = test system: NCI-H23 lung
[16] = test system: LXFL 529 NSCLC
[17] = test system: HOP-18 NSCLC
[18] = test system: A549 NSCLC
[19] = test system: DLD-1 colon
[20] = test system: NCI-H226 lung
[21] = test system: OVCAR-3 ovarian
[22] = test system: NCI-H522 lung
[23] = test system: SK-MEL-28 melanoma
[24] = test system: HT29 colon
[25] = test system: HCT-116 colon
[26] = test system: HCT-15 colon
[27] = test system: SF-295 CNS
[28] = test system: UO-31 renal
[29] = test system: UACC-257 melanoma
[30] = test system: SF-539 CNS
[31] = test system: OVCAR-5 ovarian
[32] = test system: SN12C renal
[33] = test system: KM20L2 colon
[34] = test system: DMS 273 small cell lung
[35] = test system: M14 melanoma
[36] = test system: MOLT-4 leukemia
[37] = test system: ACHN renal
[38] = test system: SNB-19 CNS
[39] = test system: U251 CNS
[40] = test system: EKVX NSCLC
[41] = test system: SK-MEL-2 melanoma
[42] = test system: COLO 205 colon
[43] = test system: IGROV1 ovarian
[44] = test system: OVCAR-8 ovarian
[45] = test system: MALME-3M melanoma
[46] = test system: KM12 colon
[47] = test system: RPMI-8226 leukemia
[48] = test system: HCC-2998 colon
[49] = test system: SK-OV-3 ovarian
[50] = test system: HOP-92 NSCLC
[51] = test system: HOP-62 NSCLC
[52] = test system: UACC-62 melanoma

Measured: TGI

COc1ccc(-c2ccccc2)c(N/N=C2\CCCNC2=O)c1
87.7 µM: [5]
> 100 µM: [1] | [2] | [3] | [4] | [6] | [7] | [9] | [10] | [11] | [12] | [13] | [14] | [15] | [16] | [17] | [19] | [20] | [21] | [22] | [23] | [24] | [26] | [27] | [28] | [29] | [30] | [31] | [32] | [33] | [34] | [35] | [36] | [37] | [38] | [39] | [40] | [41] | [42] | [43] | [44] | [45] | [46] | [47] | [48] | [49] | [50] | [52]
25.8 µM: [25]
27.5 µM: [8]
87.1 µM: [51]
27 µM: [18]
